Measurements from patent publication US20230158034A1, “CO-TREATMENT WITH CDK4/6 AND CDK2 INHIBITORS TO SUPPRESS TUMOR ADAPTATION TO CDK2 INHIBITORS” (Pfizer Inc., priority 2020, published 2023).

Assays:
[1] = Half-life of PF3600 in cells; assay type: in vitro ADME
[2] = system: MCF10A, RPE-hTERT, MCF7 and OVCAR3 cells; assay: Cell-cycle progression, mitosis and proliferation by time-lapse imaging; assay type: cell-based, human
From the text: The DHB sensor is localized to the nucleus when it is not phosphorylated. Upon phosphorylation, the nuclear localization signal is masked, the nuclear export signal is unmasked, and the sensor steadily translocates to the cytoplasm in response to increasing CDK2 activity (FIG. 1A). Thus, kinase activity can be quantified by the ratio of the cytoplasmic to nuclear fluorescence intensity (C/N ratio) of the DHB sensor. […] Asynchronously cycling cells were first imaged for approximately 20 hr in the absence of drug to establish the cell-cycle phase of each cell; the movie was then paused to add drug, and then imaging was continued for another 1-2 days. Because the cells were cycling asynchronously, all cell-cycle phases with one drug treatment were sampled. This allowed the present inventors to computationally isolate traces for cells that received drug at any time since the completion of anaphase.
Cells were seeded at least 24 hr prior to imaging in phenol-red-free full-growth medium in glass-bottom 96-well plates (CellVis P96-1.5H-N) that were coated with collagen prior to seeding. The seeding density was chosen such that the cells would remain sub-confluent until the end of the imaging period. Cells were first imaged for 16-20 hr in full-growth media without drug. The movie was then briefly paused and the full-growth media was replaced with full-growth media containing drug at the desired concentration. The plate was then re-inserted into the microscope and aligned to its prior position and imaging was continued for an additional 24-48 hr. Images were acquired every 12 min (for MCF10A or RPE-hTERT) or every 20 min (for MCF7 or OVCAR3) on a Nikon Eclipse Ti or Ti2 microscope with a 10×0.45 NA objective in a humidified, 37° C. chamber at 5% CO2. Exposure times for all movies for all channels were kept under 500 ms per timepoint to minimize phototoxicity. Cell tracking was performed using published MATLAB scripts (Cappell et al., 2016), as described previously (Arora et al., 2017). The tracking code is available for download at https://github.com/scappell/Cell_tracking. Cell counts over time were obtained by counting the number of segmented nuclei in each frame of the movie.

[3] = system: Rb, Nucleolin, Cdc6 and Nbs1 phosphorylation; assay: Immunofluorescence and western blotting of endogenous CDK2 substrates; assay type: cell-based, human; details: for Rb phosphorylation: 1 hr palbociclib treatment
Description: Cells were fixed for 15 minutes with freshly prepared 4% paraformaldehyde, washed twice with PBS, and incubated with a blocking buffer (3% BSA in PBS) for 1 hr at room temperature. Permeabilization was carried out using 0.2% Triton-X 100 for 15 min at 4° C. Primary antibody was diluted in blocking buffer and incubated with cells overnight at 4° C. followed by three washes with 1×PBS. Secondary antibodies conjugated to Alexa Fluor 488, Alexa Fluor 546 or Alexa Fluor 647 were incubated for 1 hr followed by three washes with 1×PBS. DNA was stained using Hoechst 33342 dye for 10 minutes at 1:10000 (ThermoFisher H3570). Images were acquired on a Nikon Eclipse Ti or Ti2 microscope with a 10×0.45 NA objective. DNA content was determined by taking the integrated intensity of each cell's Hoechst signal. Cells were delineated as 3-4N DNA content by plotting a histogram of DNA content and drawing a threshold and the end of the 2N peak.
Lysates were prepared using 1×LDS sample buffer (ThermoFisher NP007) using equal numbers of cells. Proteins were separated using NuPAGE precast polyacrylamide gels (ThermoFisher NP0301). Total protein was quantified using Azure Red Dye (Azure Biosystems AC2124) and was used to normalize the signal from antibodies of interest. Primary antibodies used are specified under the “Antibodies” section. HRP-conjugated or IR700 and IR800 labeled fluorescent secondary antibodies were used for visualization (Cell Signaling Technology 7074 and 7076).

[4] = system: CDK2 T-loop phosphorylation, Cyclin E1, p21; assay: Western blots of palbociclib-treated lung tumors; assay type: in vivo, mouse; details: palbociclib 70 mg/kg QD for 28 days
Description: To test the potential compensatory relationship between CDK2 and CDK4/6 in vivo, an established mouse lung tumor model driven by KRAS^G12V and TRP53 mutations was used. Kras^+/LSLG12V, Trp53^L/L mice intra-nasally infected with adenoviral particles encoding Cre recombinase developed lung tumors with a latency of 5 months. Once tumor development was detected by CT scans, animals were treated with either vehicle or palbociclib (70 mg/kg QD) for 28 days and tumor volumes were subsequently measured by CT scans at the end of the treatment period.
For western blots in FIG. 7B, protein extraction was performed in protein lysis buffer (50 mM Tris-HCl pH 7.4, 150 mM NaCl, 0.5% NP-40) supplemented with a cocktail of protease and phosphatase inhibitors (complete Mini, Roche, 11836153001; Phosphatase Inhibitor Cocktail 2 and 3, Sigma, P5726 and P0044). Protein concentrations were measured using Bradford (Bio-Rad) method. […] of protein extracts obtained from tumor tissue were separated on NUPAGE™ 4-12% Bis-Tris Midi gels (Invitrogen), transferred to a nitrocellulose membrane (GE Healthcare) and blotted with primary antibodies. Primary antibodies were detected with goat secondary antibodies directed against mouse or rabbit IgGs (HRP, Dako, and Alexa Fluor 680, Invitrogen) and visualized with ECL Western Blot detection solution (GE Healthcare).

[5] = PF3600, MCF10A, MCF7 and RPE-hTERT cells

Row | half-life [1] | SMILES | cell proliferation and mitoses ([2]; 25 nM PF3600, OVCAR3 cells, remainder of the imaging period) | mitosis ([2]; 100 nM PF3600, MCF7) | cell-cycle progression and mitosis after PF3600 [2, 5] | intermitotic times [2, 5] | Rb and Nucleolin phosphorylation by immunofluorescence ([3]; 100 nM PF3600, MCF10A cells with 3-4N DNA content) | cell-cycle arrest ([2]; 1 μM palbociclib (after the upcoming mitosis) or 9 μM RO3306 (toward end of cell cycle), MCF10A) | sensitivity to palbociclib ([2]; MCF10A, MCF7 and RPE-hTERT cells) | sensitivity to palbociclib ([2]; OVCAR3 cells (amplification of cyclin E)) | Rb phosphorylation ([3]; cells with 2N DNA content) | Rb phosphorylation ([3]; cells with 3-4N DNA content) | CDK2 T-loop phosphorylation and Cyclin E1 in tumors (western blot) [4] | p21 in tumors (western blot) [4]
1 | ~1800 min | C[C@@]1(O)CCC[C@H]1n1c(=O)c(C(F)F)cc2cnc(NC3CCN(S(C)(=O)=O)CC3)nc21 [PF3600, 6-(difluoromethyl)-8-[(1R,2R)-2-hydroxy-2-methylcyclopentyl]-2-{[1-(methylsulfonyl)-piperidin-4-yl]amino}pyrido[2,3-d]pyrimidin-7(8H)-one] | inhibited cell proliferation and prevented all further mitoses | blocked mitosis | cell-cycle progression continued, and cells eventually completed mitosis | longer intermitotic times | transient reduction in Rb and Nucleolin phosphorylation followed by a rebound | – | – | – | – | – | – | –
2 | – | CC(=O)c1c(C)c2cnc(Nc3ccc(N4CCNCC4)cn3)nc2n(C2CCCC2)c1=O [palbociclib] | – | – | – | – | – | CDK2^low G0 arrest | palbociclib-sensitive | resistant | dephosphorylation of Rb | no effect | upregulation of CDK2 T-loop phosphorylation and Cyclin E1 | significant downregulation of the CDK inhibitor p21
